{"source": "patent US5340925A", "about": "“Normal human growth regulatory receptor for TGF-β” (Oncogen, priority 1992, dated 1994)", "key": {"HEPM cells [1]": {"system": "HEPM cells", "test": "Growth stimulation assay: incorporation of 5-[125I]iodo-2'-deoxyuridine into DNA of quiescent HEPM cells", "type": "cell-based, human", "conditions": "66 h + 6 h radionuclide label", "method": "FIGS. 1(A) and 1(B) Bioactivity of TGF-β on HEPM cells: incorporation of radionuclide into DNA. Results are presented as percent stimulation vs the picomolar (pM) concentration of TGF-β. Percent stimulation was calculated as follows: treated (cpm)-untreated (cpm)/untreated (cpm) x 100. Panel A: TGF-β1, treatment. Panel B: TGF-β2 treatment.\nHEPM cells (5,000 cells/50 μl ) were subcultured in 96-well tissue culture plates (Falcon 30072) in growth medium comprising minimal essential medium (Gibco, Grand Island, N.Y.) supplemented with 10% heat-inactivated fetal bovine serum, 600 μg/ml L-glutamine, 500 μg/ml penicillin and 500 μg/ml streptomycin for a 24-hour period at 37° C. in a humidified 5% CO2 /95% air atosphere. A nondividing, quiescent state of growth was achieved by subsequent incubation for 48 hours in growth medium supplemented with 0.5% fetal bovine serum. Quiescent cells were then stimulated to proliferate by the addition of fetal bovine serum (10 μl ) and test samples of TGF-β1, or TGF-β2 (50 μl). The cells were incubated an additional 66 hours at 37° C. […] The amount of cell growth was measured by the amount of radionuclide incorporated into the DNA of actively growing cells."}, "HEPM cells [2]": {"system": "HEPM cells", "test": "Stimulation of anchorage independent growth assay (soft agar)", "type": "cell-based, human", "conditions": "50 pM TGF-β1 at plating, colonies enumerated on day 13", "method": "FIGS. 3(A) and 3(B) Bioactivity of TGF-β on HEPM cells: stimulation of growth in soft agar. Cells were treated with 50 pM TGF-β1, at the time of plating and colony formation was enumerated on day 13.\nA 0.5 ml base layer of 0.5% agar (Agar Noble; Difco Laboratories, Detroit, Mich.) in growth medium was added to 24-well Costar tissue culture plates 0.5 ml 0.3% agar in growth medium containing 1×10^4 HEPM cells and various concentrations of TGF-β or other test samples was overlaid on the base layer of agar in triplicate wells. The plates were incubated at 37° C. in a humidifed atmosphere of 5% CO2 in air for up to 14 days without refeeding. Colonies were enumerated unfixed and unstained. The number of colonies with more than 6 cells were scored."}}, "data": [{"substance": "TGF-β1: Transforming growth factor-Beta type 1; two identical disulfide linked subunits having molecular weights of 13,000; recombinant material used", "values": [{"measurement": "ED50 in stimulating the proliferation of HEPM cells (half-maximal growth stimulation)", "setting": "HEPM cells [1]", "result": 5, "unit": "pM"}, {"measurement": "mean colony number in soft agar", "setting": "HEPM cells [2]", "result": "8±1"}]}]}
